Laboratory results as given in patent publication US10759813B2, “Neprilysin inhibitors” (THERAVANCE BIOPHARMA R&D IP, LLC, priority 2010, dated 2020).

Each compound was assayed against human neprilysin (EC 3.4.24.11; NEP) (Homo sapiens (Human), UniProt P08473) (assay: In vitro enzyme inhibition assay at human NEP (fluorogenic peptide substrate)). Details: pKi values at human NEP, recombinant human NEP.
Type: biochemical
Experimental: In Vitro Assays for the Quantitation of Inhibitor Potencies at Human and Rat NEP, and Human ACE
The inhibitory activities of compounds at human and rat neprilysin (EC 3.4.24.11; NEP) and human angiotensin converting enzyme (ACE) were determined using in vitro assays as described below.
Recombinant human NEP and recombinant human ACE were obtained commercially (R&D Systems, Minneapolis, Minn., catalog numbers 1182-ZN and 929-ZN, respectively). The fluorogenic peptide substrate Mca-D-Arg-Arg-Leu-Dap-(Dnp)-OH (Medeiros et al. (1997) Braz. J. Med. Biol. Res. 30:1157-62; Anaspec, San Jose, Calif.) and Abz-Phe-Arg-Lys(Dnp)-Pro-OH (Araujo et al. (2000) Biochemistry 39:8519-8525; Bachem, Torrance, Calif.) were used in the NEP and ACE assays respectively.
The assays were performed in 384-well white opaque plates at 37° C. using the fluorogenic peptide substrates at a concentration of 10 μM in Assay Buffer (NEP: 50 mM HEPES, pH 7.5, 100 mM NaCl, 0.01% polyethylene glycol sorbitan monolaurate (Tween-20), 10 μM ZnSO4; ACE: 50 mM HEPES, pH 7.5, 100 mM NaCl, 0.01% Tween-20, 1 μM ZnSO4).
Test compounds were assayed over the range of concentrations from 10 μM to pM. Test compounds were added to the enzymes and incubated for 30 minute at 37° C. prior to initiating the reaction by the addition of substrate. Reactions were terminated after 20 minutes of incubation at 37° C. by the addition of glacial acetic acid to a final concentration of 3.6% (v/v).
Plates were read on a fluorometer with excitation and emission wavelengths set to 320 nm and 405 nm, respectively. Inhibition constants were obtained by nonlinear regression of the data using the equation (GraphPad Software, Inc., San Diego, Calif.): v=v0/[1+(I/K′)] where v is the reaction rate, v0 is the uninhibited reaction rate, I is the inhibitor concentration and K′ is the apparent inhibition constant.
Compounds of the invention were tested in this assay and found to have pKi values at human NEP as follows.

Sequence of human neprilysin (EC 3.4.24.11; NEP) (P08473 52-750): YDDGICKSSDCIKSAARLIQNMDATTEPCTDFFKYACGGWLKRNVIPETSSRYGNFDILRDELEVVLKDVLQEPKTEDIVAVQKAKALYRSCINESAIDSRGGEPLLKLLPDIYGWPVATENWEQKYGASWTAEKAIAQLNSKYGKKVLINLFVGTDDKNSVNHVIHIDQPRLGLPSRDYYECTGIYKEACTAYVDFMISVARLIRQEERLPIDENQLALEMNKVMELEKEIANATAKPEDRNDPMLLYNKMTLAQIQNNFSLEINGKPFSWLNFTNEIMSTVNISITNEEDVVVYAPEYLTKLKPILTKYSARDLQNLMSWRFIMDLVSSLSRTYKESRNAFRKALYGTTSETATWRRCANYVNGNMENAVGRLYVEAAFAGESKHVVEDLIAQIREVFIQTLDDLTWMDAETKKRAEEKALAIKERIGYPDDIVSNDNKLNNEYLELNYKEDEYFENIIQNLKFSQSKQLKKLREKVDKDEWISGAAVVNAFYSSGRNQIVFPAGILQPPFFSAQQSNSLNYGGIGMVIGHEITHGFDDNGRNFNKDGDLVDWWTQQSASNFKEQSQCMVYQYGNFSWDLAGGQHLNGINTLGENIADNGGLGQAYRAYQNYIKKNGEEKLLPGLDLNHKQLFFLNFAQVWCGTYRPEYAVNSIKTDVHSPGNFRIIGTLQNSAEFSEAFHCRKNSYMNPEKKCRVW

pKi, ≥9.0:
O=C(N[C@H](Cc1ccc(-c2ccccc2)cc1)C[C@H](O)C(=O)O)c1cc(C(=O)O)[nH]n1 [Example 2-C, 5-((1R,3S)-1-Biphenyl-4-ylmethyl-3-carboxy-3-hydroxypropylcarbamoyl)-2H-pyrazole-3-carboxylic Acid]
CC(C)(C)c1cc(C(=O)N[C@H](Cc2ccc(-c3cccc(Cl)c3)cc2)C[C@@H](O)C(=O)O)on1 [Example 18-14, (2R,4R)-4-[(3-tert-Butyl-isoxazole-5-carbonyl)-amino]-5-(3′-chloro-biphenyl-4-yl)-2-hydroxy-pentanoic acid]
O=C(N[C@H](Cc1ccc(-c2ccccc2)cc1)C[C@@H](O)C(=O)O)c1cc(-c2ccccc2Cl)no1 [Example 12-6, (2R,4R)-5-Biphenyl-4-yl-4-{[3-(2-chlorophenyl)-isoxazole-5-carbonyl]-amino}-2-hydroxy-pentanoic acid]
CC(C)(c1ccc(-c2ccccc2)cc1)[C@H](C[C@@H](O)C(=O)O)NC(=O)c1cc(C(=O)O)n[nH]1 [Example 24, 5-[(S)-2-Biphenyl-4-yl-1-((R)-2-carboxy-2-hydroxy-ethyl)-2-methyl-propylcarbamoyl]-1H-pyrazole-3-carboxylic Acid]
O=C(N[C@H](Cc1ccc(-c2ccccc2)cc1)C[C@@H](O)C(=O)O)c1cc(-c2ccccc2Cl)n[nH]1 [Example 15-84, (2R,4R)-5-Biphenyl-4-yl-4-{[5-(2-chlorophenyl)-2H-pyrazole-3-carbonyl]amino}-2-hydroxy-pentanoic acid]
O=C(N[C@H](Cc1ccc(-c2ccccc2)cc1)C[C@@H](O)C(=O)O)c1cc(-c2ccccc2)[nH]n1 [Example 15-33, (2R,4R)-5-Biphenyl-4-yl-2-hydroxy-4-[(5-phenyl-1H-pyrazole-3-carbonyl)-amino]-pentanoic acid]

Ki, ≤ 1 nM:
O=C(N[C@H](Cc1ccc(-c2cccc(Cl)c2)cc1)C[C@@H](O)C(=O)O)c1cn(O)nn1 [Example 17-A, (2R,4R)-5-(3′-Chlorobiphenyl-4-yl)-2-hydroxy-4-[(1-hydroxy-1H-[1,2,3]triazole-4-carbonyl)-amino]pentanoic Acid]

Ki, 12.6 to 100 nM:
CC(C)CN(C)C(=O)c1cc(C(=O)N[C@H](Cc2ccc(-c3ccccc3)cc2)C[C@H](O)C(=O)O)[nH]n1 [Example 15-65, (2S,4R)-5-Biphenyl-4-yl-2-hydroxy-4-{[5-(isobutylmethyl-carbamoyl)-2H-pyrazole-3-carbonyl]amino}-pentanoic acid]
COc1ccccc1C(=O)Nc1nc(C(=O)N[C@H](Cc2ccc(-c3ccccc3)cc2)C[C@@H](O)C(=O)O)cs1 [Example 12-25, (2R,4R)-5-Biphenyl-4-yl-2-hydroxy-4-{[2-(2-methoxy-benzoylamino)-thiazole-4-carbonyl]-amino}-pentanoic acid]
O=C(N[C@H](Cc1ccc(-c2ccccc2)cc1)CC(O)C(=O)O)c1cnc2[nH]cnc2c1 (stereo partly drawn) [Example 11-9, (R)-5-Biphenyl-4-yl-2-hydroxy-4-[(3H-imidazo[4,5-b]pyridine-6-carbonyl)-amino]-pentanoic acid]

Ki, 1.26 to 10 nM:
CCCCc1cc(C(=O)N[C@H](Cc2ccc(-c3ccccc3)cc2)CC(O)C(=O)O)[nH]n1 (stereo partly drawn) [Example 15-75, (R)-5-Biphenyl-4-yl-4-[(5-butyl-2H-pyrazole-3-carbonyl)-amino]-2-hydroxy-pentanoic acid]
O=C(N[C@H](Cc1ccc(-c2ccccc2)cc1)C[C@@H](O)C(=O)O)c1cc2n(n1)COc1ccccc1-2 [Example 16-6, (2R,4R)-5-Biphenyl-4-yl-2-hydroxy-4-[(5-oxa-3,3a-diaza-cyclopenta[a]naphthalene-2-carbonyl)-amino]-pentanoic acid]
O=C(O)CCn1nc(C(=O)N[C@H](Cc2ccc(-c3ccccc3)cc2)C[C@@H](O)C(=O)O)cc1-c1ccccc1 [Example 15-36, (2R,4R)-5-Biphenyl-4-yl-4-{[1-(2-carboxy-ethyl)-5-phenyl-1H-pyrazole-3-carbonyl]-amino}-2-hydroxy-pentanoic acid]
